Results as given in US10335503B2, “Compound that specifically binds to AMPA receptor” (Public University Corporation Yokohama City University, priority 2015, dated 2019).

How the values were obtained:
Details in all cases: K-2 at 1 × 10^−7 mol/L
Endothelin ETA = Endothelin ETA (Homo sapiens, UniProt P25101); experiment: Receptor binding panel: Endothelin ETA
β1-Adrenergic = β1-Adrenergic (Homo sapiens, UniProt P08588); experiment: Receptor binding panel: β1-Adrenergic
Bradykinin B2 = Bradykinin B2 (Homo sapiens, UniProt P30411); experiment: Receptor binding panel: Bradykinin B2
Dopamine D1 = Dopamine D1 (Homo sapiens, UniProt P21728); experiment: Receptor binding panel: Dopamine D1
Sequence of Dopamine D1 (P21728 whole entry): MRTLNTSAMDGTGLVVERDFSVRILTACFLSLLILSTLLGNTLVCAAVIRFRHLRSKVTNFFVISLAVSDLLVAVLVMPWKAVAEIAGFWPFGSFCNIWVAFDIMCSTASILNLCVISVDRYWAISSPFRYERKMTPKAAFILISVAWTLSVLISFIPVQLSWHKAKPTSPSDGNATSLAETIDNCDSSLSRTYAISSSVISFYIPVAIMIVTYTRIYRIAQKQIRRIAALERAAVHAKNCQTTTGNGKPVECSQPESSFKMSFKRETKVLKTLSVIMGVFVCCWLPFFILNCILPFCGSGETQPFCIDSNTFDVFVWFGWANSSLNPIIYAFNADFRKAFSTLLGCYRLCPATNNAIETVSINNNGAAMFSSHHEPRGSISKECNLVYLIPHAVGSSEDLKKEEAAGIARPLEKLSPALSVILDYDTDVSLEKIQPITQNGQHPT

Histamine H3 = Histamine H3 (Homo sapiens, UniProt Q9Y5N1); experiment: Receptor binding panel: Histamine H3
Sequence of Histamine H3 (Q9Y5N1 whole entry): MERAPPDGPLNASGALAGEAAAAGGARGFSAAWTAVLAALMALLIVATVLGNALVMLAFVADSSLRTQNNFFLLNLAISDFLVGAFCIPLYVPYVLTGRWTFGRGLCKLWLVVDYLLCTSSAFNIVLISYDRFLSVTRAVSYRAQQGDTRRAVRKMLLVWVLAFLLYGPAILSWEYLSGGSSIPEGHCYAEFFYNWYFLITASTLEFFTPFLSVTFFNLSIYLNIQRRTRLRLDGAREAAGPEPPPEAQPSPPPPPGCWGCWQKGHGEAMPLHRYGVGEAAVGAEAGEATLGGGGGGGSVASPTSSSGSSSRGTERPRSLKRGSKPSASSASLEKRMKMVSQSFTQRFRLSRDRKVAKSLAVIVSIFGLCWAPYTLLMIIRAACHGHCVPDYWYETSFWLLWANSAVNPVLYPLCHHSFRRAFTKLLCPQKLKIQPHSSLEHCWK

Androgen = Androgen (Homo sapiens, UniProt P10275); experiment: Receptor binding panel: Androgen
Sequence of Androgen (P10275 whole entry): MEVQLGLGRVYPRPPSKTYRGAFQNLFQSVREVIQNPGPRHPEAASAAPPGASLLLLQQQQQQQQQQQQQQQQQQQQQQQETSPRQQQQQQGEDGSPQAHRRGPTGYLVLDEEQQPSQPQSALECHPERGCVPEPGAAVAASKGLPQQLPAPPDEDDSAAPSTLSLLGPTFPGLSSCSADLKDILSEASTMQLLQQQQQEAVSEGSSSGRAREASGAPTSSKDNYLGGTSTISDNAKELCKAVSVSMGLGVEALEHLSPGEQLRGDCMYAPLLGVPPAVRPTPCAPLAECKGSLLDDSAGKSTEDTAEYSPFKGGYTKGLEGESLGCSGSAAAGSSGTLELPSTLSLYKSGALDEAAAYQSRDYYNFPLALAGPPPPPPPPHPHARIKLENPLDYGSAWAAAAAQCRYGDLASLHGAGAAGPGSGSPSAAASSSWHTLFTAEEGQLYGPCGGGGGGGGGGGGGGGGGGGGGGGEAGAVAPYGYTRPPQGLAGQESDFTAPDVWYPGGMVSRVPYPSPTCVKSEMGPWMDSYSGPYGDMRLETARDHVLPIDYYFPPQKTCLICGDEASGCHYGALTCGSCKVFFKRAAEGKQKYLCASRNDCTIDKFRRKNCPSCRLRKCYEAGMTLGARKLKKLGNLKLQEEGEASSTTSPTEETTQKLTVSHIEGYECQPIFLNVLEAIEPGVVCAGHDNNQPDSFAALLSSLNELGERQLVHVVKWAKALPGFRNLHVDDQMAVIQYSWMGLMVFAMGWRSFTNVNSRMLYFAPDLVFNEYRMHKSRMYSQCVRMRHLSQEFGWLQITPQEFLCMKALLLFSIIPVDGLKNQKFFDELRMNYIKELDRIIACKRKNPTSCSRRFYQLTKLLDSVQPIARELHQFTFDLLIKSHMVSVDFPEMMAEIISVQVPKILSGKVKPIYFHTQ

[1] = system: Glycine (Strychnine sensitive); experiment: Receptor binding panel: Glycine (Strychnine sensitive)
Neurokinin NK1 = Neurokinin NK1 (Homo sapiens, UniProt P25103); experiment: Receptor binding panel: Neurokinin NK1
Melatonin MT1 = Melatonin MT1 (Homo sapiens, UniProt P48039); experiment: Receptor binding panel: Melatonin MT1
Sequence of Melatonin MT1 (P48039 whole entry): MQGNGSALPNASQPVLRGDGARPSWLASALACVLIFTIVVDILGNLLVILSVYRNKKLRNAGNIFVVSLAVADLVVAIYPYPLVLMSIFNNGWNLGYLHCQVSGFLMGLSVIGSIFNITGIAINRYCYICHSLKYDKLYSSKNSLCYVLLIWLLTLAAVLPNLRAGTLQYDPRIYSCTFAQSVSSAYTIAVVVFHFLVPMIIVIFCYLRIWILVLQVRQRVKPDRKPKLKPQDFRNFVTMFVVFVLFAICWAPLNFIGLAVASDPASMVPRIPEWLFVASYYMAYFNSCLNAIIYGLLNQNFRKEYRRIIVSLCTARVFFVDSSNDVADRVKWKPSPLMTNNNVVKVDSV

[2] = system: Glutamate (NMDA phencyclidine site); experiment: Receptor binding panel: Glutamate (NMDA phencyclidine site)
Muscarinic M2 = Muscarinic M2 (Homo sapiens, UniProt P08172); experiment: Receptor binding panel: Muscarinic M2
Sequence of Muscarinic M2 (P08172 whole entry): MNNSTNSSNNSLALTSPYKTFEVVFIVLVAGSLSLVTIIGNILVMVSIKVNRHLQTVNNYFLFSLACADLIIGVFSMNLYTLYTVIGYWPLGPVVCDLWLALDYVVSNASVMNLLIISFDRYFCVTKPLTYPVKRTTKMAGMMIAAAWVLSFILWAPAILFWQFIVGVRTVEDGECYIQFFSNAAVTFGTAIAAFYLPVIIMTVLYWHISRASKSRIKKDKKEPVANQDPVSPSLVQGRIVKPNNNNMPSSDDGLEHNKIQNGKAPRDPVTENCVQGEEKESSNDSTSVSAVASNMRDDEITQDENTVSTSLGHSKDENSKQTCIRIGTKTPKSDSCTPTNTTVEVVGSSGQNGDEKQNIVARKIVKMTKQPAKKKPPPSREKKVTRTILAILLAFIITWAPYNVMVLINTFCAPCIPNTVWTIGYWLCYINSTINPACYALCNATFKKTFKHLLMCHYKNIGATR

Sigma σ2 = Sigma σ2 (Homo sapiens, UniProt Q5BJF2); experiment: Receptor binding panel: Sigma σ2
Opiate δ = Opiate δ (Homo sapiens, UniProt P41143); experiment: Receptor binding panel: Opiate δ
Sequence of Opiate δ (P41143 whole entry): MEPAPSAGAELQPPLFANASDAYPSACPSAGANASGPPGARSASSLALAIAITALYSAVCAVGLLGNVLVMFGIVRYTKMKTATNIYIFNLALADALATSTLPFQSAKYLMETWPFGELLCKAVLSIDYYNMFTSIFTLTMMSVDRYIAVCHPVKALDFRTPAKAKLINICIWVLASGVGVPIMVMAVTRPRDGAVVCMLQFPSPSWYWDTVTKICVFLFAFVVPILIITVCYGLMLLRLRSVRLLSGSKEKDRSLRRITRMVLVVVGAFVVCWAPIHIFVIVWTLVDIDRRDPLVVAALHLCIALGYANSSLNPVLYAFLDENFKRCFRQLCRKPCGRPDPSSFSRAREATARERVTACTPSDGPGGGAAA

Leukotriene D4 = experiment: Receptor binding panel: Leukotriene D4
Sigma σ1 = Sigma σ1 (Homo sapiens, UniProt Q99720); experiment: Receptor binding panel: Sigma σ1
Sequence of Sigma σ1 (Q99720 whole entry): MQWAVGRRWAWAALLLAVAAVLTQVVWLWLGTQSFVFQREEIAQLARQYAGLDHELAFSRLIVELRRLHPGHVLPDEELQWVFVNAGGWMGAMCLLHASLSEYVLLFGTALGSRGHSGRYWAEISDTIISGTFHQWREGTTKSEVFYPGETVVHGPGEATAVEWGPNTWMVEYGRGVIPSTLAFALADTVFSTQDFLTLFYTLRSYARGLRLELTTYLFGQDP

Glutamate (AMPA) = experiment: Receptor binding panel: Glutamate (AMPA)
Na channel site 2 = experiment: Receptor binding panel: Na channel site 2
K Channel SKCa = experiment: Receptor binding panel: K Channel SKCa
Opiate μ = Opiate μ (Homo sapiens, UniProt P35372); experiment: Receptor binding panel: Opiate μ
Sequence of Opiate μ (P35372 whole entry): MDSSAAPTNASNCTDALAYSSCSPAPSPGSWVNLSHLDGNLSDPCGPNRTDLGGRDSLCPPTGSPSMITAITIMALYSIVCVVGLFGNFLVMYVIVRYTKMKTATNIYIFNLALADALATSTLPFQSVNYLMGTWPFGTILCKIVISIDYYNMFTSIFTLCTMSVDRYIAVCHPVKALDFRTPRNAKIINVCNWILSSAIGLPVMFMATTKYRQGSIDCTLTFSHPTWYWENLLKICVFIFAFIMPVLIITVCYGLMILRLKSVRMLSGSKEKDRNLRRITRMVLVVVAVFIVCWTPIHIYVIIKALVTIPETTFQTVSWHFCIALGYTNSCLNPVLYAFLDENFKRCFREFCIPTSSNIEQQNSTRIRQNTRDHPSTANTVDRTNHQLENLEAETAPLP

Muscarinic M1 = Muscarinic M1 (Homo sapiens, UniProt P11229); experiment: Receptor binding panel: Muscarinic M1
Sequence of Muscarinic M1 (P11229 whole entry): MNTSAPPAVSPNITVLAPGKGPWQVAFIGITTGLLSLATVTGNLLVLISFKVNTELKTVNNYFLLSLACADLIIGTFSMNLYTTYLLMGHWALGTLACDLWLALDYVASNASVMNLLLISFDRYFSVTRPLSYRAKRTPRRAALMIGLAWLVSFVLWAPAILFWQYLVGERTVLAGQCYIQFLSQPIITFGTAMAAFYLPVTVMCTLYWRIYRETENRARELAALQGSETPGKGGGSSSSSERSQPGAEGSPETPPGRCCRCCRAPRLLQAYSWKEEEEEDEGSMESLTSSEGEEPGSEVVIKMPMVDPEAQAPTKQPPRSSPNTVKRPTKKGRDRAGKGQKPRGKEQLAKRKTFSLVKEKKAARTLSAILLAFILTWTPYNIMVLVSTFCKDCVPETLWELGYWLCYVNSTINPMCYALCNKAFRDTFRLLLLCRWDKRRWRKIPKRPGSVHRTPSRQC

PAF = PAF (Homo sapiens, UniProt P25105); experiment: Receptor binding panel: PAF
Sequence of PAF (P25105 whole entry): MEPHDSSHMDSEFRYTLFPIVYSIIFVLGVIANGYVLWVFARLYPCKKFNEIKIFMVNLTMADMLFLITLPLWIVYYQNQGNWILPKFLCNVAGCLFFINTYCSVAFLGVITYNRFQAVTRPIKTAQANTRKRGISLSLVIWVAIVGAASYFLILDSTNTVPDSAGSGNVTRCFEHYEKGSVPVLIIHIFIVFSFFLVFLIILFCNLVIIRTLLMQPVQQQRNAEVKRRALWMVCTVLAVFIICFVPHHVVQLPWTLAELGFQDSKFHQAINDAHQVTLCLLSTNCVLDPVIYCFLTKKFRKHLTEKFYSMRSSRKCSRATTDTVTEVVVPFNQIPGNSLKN

Dopamine transporter = Dopamine transporter (Homo sapiens, UniProt Q01959); experiment: Receptor binding panel: Dopamine transporter
[3] = system: Glutamate (NMDA agonist site); experiment: Receptor binding panel: Glutamate (NMDA agonist site)
Opiate κ = Opiate κ (Homo sapiens, UniProt P41145); experiment: Receptor binding panel: Opiate κ
Sequence of Opiate κ (P41145 whole entry): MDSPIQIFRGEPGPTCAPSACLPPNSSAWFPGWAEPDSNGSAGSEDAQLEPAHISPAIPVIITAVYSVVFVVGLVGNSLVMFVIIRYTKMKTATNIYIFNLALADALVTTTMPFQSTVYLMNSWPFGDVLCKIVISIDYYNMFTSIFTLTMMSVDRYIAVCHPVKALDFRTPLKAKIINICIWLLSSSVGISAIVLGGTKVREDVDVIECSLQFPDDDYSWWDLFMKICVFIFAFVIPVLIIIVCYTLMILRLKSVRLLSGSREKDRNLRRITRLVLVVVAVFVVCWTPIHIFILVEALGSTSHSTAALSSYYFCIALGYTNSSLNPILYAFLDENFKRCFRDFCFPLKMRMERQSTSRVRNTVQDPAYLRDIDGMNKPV

Angiotensin AT2 = Angiotensin AT2 (Homo sapiens, UniProt P50052); experiment: Receptor binding panel: Angiotensin AT2
Muscarinic M3 = Muscarinic M3 (Homo sapiens, UniProt P20309); experiment: Receptor binding panel: Muscarinic M3
Endothelin ETB = Endothelin ETB (Homo sapiens, UniProt P24530); experiment: Receptor binding panel: Endothelin ETB

Work on `CN(CCSc1cc(F)c(OCC(N)=O)c(F)c1)S(=O)(=O)c1ccccc1` [K-2, {4-[2-(benzenesulfonyl-methyl-amino)-ethylsulfanil]-2,6-difluoro-phenoxy}-acetamide] yielded an inhibition at 0.1 µM (Endothelin ETA) of 1.81%, an inhibition at 0.1 µM (β1-Adrenergic) of 0.82% and an inhibition at 0.1 µM (Bradykinin B2) of 10.3%. The inhibition at 0.1 µM (Dopamine D1) was 10.2%, the inhibition at 0.1 µM (Histamine H3) was 0% and the inhibition at 0.1 µM (Androgen) was 0.57%. The “Inhibition (%)” value [1] was 8.46%, the inhibition at 0.1 µM (Neurokinin NK1) was 0% and the inhibition at 0.1 µM (Melatonin MT1) was 0.11%. The “Inhibition (%)” value [2] was 5.02%, the inhibition at 0.1 µM (Muscarinic M2) was 0.51% and the inhibition at 0.1 µM (Sigma σ2) was 4.07%. The inhibition at 0.1 µM (Opiate δ) was 0.3%, the “Inhibition (%)” value (Leukotriene D4) was 0.16% and the inhibition at 0.1 µM (Sigma σ1) was 2.88%. The “Inhibition (%)” value (Glutamate (AMPA)) was 1.74%, the “Inhibition (%)” value (Na channel site 2) was 11.15% and the “Inhibition (%)” value (K Channel SKCa) was 0.00%. The inhibition at 0.1 µM (Opiate μ) was 8.78%, the inhibition at 0.1 µM (Muscarinic M1) was 2.24% and the inhibition at 0.1 µM (PAF) was 0%. For the same molecule, the inhibition at 0.1 µM (Dopamine transporter) was 0.29%, the “Inhibition (%)” value [3] was 0.57% and the inhibition at 0.1 µM (Opiate κ) was 0%. For the same molecule, the inhibition at 0.1 µM (Angiotensin AT2) was 1.05%, the inhibition at 0.1 µM (Muscarinic M3) was 5.99% and the inhibition at 0.1 µM (Endothelin ETB) was 0%.
